# Source: PMC2930046 (Archives of biochemistry and biophysics, 2010)
# Values joined by “and” are separate entries in the source; they are usually repeats but may differ in a detail not shown here. Identical values can stand only once. Peptide text beside a SMILES is read from it. * marks the point of attachment. AMC = Cc1cc(=O)oc2cc(N*)ccc12; Cbz = O=C(OCc1ccccc1)*
# Columns and labels:
# Mtb proteasome = conditions: cited from earlier work
# mammalian proteasome = conditions: cited from earlier work
# proteasome β5 = conditions: read-out: IC50 for β5; cited from earlier work
# [1] = system: fibroblasts and glial-derived cells; conditions: through inhibition of proteasome activity; cited from earlier work
# Mtb20SOG [2] = molecular target: T1, Mtb20SOG (Mycobacterium tuberculosis, UniProt P9WHT9); type: biochemical; conditions: retest of screening hits
# human 20S β5 = human 20S β5 (Homo sapiens, UniProt P28074); type: biochemical
# cancer cells = conditions: cited from earlier work
# Mtb20SOG [3] = molecular target: T1, Mtb20SOG; experiment: Kinetics of inhibition of Mtb20SOG, progress curves of Suc-LLVY-AMC cleavage; type: biochemical
# T1 sequence (P9WHT9 58-291): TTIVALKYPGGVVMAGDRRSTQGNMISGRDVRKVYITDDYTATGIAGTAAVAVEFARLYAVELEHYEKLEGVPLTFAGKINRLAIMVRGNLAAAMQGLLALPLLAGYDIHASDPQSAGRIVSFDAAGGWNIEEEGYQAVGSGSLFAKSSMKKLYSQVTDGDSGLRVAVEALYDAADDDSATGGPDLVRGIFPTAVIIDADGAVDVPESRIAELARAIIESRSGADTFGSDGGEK
compound,measurement,setting,value
CC(=O)NC(CC(N)=O)C(=O)NC(CCC(N)=O)C(=O)NC(CC(C)C)C(=O)Nc1ccc2c(C)cc(=O)oc2c1 (stereo not drawn) [Ac-NQL-AMC] (Ac-Asn-Gln-Leu-{AMC}; configuration not given here),hydrolysis by the Mtb proteasome,Mtb proteasome,could not be hydrolyzed
CC(C)C[C@@H](C=O)NC(=O)[C@H](CC(C)C)NC(=O)[C@H](CC(C)C)NC(=O)OCc1ccccc1 [Z-Leu-Leu-Leu-Cho] (Cbz-Leu-Leu-Leu-aldehyde),Ki,mammalian proteasome,4 nM
"CCCCCCCCC[C@@H](O)CC(=O)N[C@@H](CC(N)=O)C(=O)N[C@@H](CCC(N)=O)C(=O)N[C@H](C=O)CC(C)C [compound 1, (R)-3-hydroxydodecanoyl-Asn-Gln-Leu-CHO]",IC50,proteasome β5,9.6 nM
same,release of nerve growth factor,[1],induce the release of nerve growth factor
same,inhibition of Mtb20SOG on retest with re-supplied compound,Mtb20SOG [2],dose-dependent inhibition
same,advantage on binding affinity of EI* over EI (ΔG = −RTlnK),human 20S β5,1.5 kcal/mol
same,k5/k6 ratio,human 20S β5,11
same,Ki,"human 20S β5; Ki, initial EI complex, corrected by equation 4, two-step mechanism",11.6 nM and 11.5 nM
same,distribution of enzyme into EI*,human 20S β5; from k5/k6 ratio,91%
same,cytotoxicity to cancer cells,cancer cells,cytotoxic to cancer cells
same,Ki,"Mtb20SOG [3]; Ki calculated from koff/kon, koff/kon",7.4 nM
same,Ki,"Mtb20SOG [3]; Ki, Morrison fit of vs/vo vs [1], corrected by (1+[S]/KM), one-step slow binding",6.8 nM
same,Ki,"Mtb20SOG [3]; Kiapp, apparent, Morrison equation 3, uncorrected",11.1 nM
same,koff,Mtb20SOG [3]; read-out: k4 (koff),0.00096 s⁻¹
same,kon,"Mtb20SOG [3]; read-out: kon^app (slope of the fit, apparent)",79500 M⁻¹ s⁻¹
